Laboratory results published in patent US20220298038A1, “A METHOD FOR DISRUPTING BIOFILMS IN WASTEWATER SYSTEMS” (GRENOF PTY LTD, priority 2019, published 2022).
Where two headings read alike, the source gives them in different places.

Experiments:
[1] = cited from earlier work
[2] = cited from earlier work; remark: listed apart in the source
biofilm = assay: Biofilm disrupting activity compared with other oxidants
Protocol: Peracetic acid is typically more reactive at higher temperature (5 times more reactive at 35° C. than 15° C.). […] This is believed to be due to the nature and type of radicals formed upon cleavage of the peracetic acid peroxy bond.

[3] = cited from earlier work; remark: listed apart in the source
[4] = 35° C. vs 15° C.; cited from earlier work
[5] = cited from earlier work; remark: listed apart in the source
[6] = test system: biofilm in a sewerage network; assay: Trial 2: H2S Odalog monitoring, manhole 200 m from Location 2; set-up: species or system sulphate reducing microbes and methanogenic archaea
Catalase = conditions: cited from earlier work
[7] = standard oxidation potential (at pH 7)
[8] = Days 67-68, H2O2 330 mg/L after F1 dosing stopped

Compound: CCCCCCCC(=O)OO [peroxyoctanoic acid]
- solubility in water ([1]; (at pH 7)): slightly soluble

Compound: CC(=O)OO [Peracetic Acid, peroxyacetic acid]
- Oxidation Potential ([2]; pH 7): 1.81 eV
- biofilm disrupting activity compared with hydrogen peroxide (biofilm; vs hydrogen peroxide): stronger biofilm disrupting activity
- biofilm disrupting activity compared with ozone (biofilm; vs ozone): stronger biofilm disrupting activity
- DT50 (25° C.) ([3]; pH 4): 46.7 h
- DT50 (25° C.) ([3]; pH 7): 31.7 h
- DT50 (25° C.) ([3]; pH 9): 3.6 h
- reactivity at 35° C. relative to 15° C. [4]: 5 times

Compound: [O][Cl+][O-] [Chlorine Dioxide]
- Oxidation Potential ([2]; pH 7): 0.95 eV

Compound: O=[O+][O-] [Ozone]
- Oxidation Potential ([2]; pH 7): 2.07 eV

Compound: S [Hydrogen Sulphide (H2S), Hydrogen Sulphide]
- Mole Fraction of Species (%) ([5]; pH 4): >99%
- Mole Fraction of Species (%) ([5]; pH 5): ~99%
- Mole Fraction of Species (%) ([5]; pH 5.5): 97%
- Mole Fraction of Species (%) ([5]; pH 6.0): 91%
- Mole Fraction of Species (%) ([5]; pH 6.5): 76%
- Mole Fraction of Species (%) ([5]; pH 7.5): 24%
- Mole Fraction of Species (%) ([5]; pH 8.0): 9%
- Mole Fraction of Species (%) ([5]; pH 8.5): 3%
- Mole Fraction of Species (%) ([5]; pH 9.0): ~1%
- Mole Fraction of Species (%) ([5]; pH 10.0): <1%

Compound: S [Bisulphide (HS^−), Bisulphide]
- Mole Fraction of Species (%) ([5]; pH 4): <1%
- Mole Fraction of Species (%) ([5]; pH 5): ~1%
- Mole Fraction of Species (%) ([5]; pH 5.5): 3%
- Mole Fraction of Species (%) ([5]; pH 6.0): 9%
- Mole Fraction of Species (%) ([5]; pH 6.5): 24%
- Mole Fraction of Species (%) ([5]; pH 7.0): 50%
- Mole Fraction of Species (%) ([5]; pH 7.5): 76%
- Mole Fraction of Species (%) ([5]; pH 8.0): 91%
- Mole Fraction of Species (%) ([5]; pH 8.5): 97%
- Mole Fraction of Species (%) ([5]; pH 9.0): ~99%
- Mole Fraction of Species (%) ([5]; pH 10.0): >99%

Compound: OCl [Sodium Hypochlorite]
- Oxidation Potential [2, 7]: 0.94 eV

Compound: OO [Formulation H2O2, hydrogen peroxide]
- Oxidation Potential [2, 7]: 1.78 eV
- Avg. H2S [6, 8]: 0.3 ppm
- Peak H2S [6, 8]: 3 ppm
- Avg. H2S ([6]; Days 69-81, H2O2 330 mg/L): 2.8 ppm
- Peak H2S ([6]; Days 69-81, H2O2 330 mg/L): 72 ppm
- Avg. H2S ([6]; Days 82-86, H2O2 1,000 mg/L): 3.7 ppm
- Peak H2S ([6]; Days 82-86, H2O2 1,000 mg/L): 33 ppm

Compound: CCCCCCCCCCCC(=O)OO [peroxydodecanoic]
- solubility in water ([1]; pH 7): very limited solubility

Compound: CCCCCCCCCCCCCCCCCC(=O)OO [peroxyoctadecanoic]
- solubility in water ([1]; pH 7): very limited solubility

Compound: CCOO [ethyl hydroperoxide]
- binding by catalase (Catalase): rapidly
- catalysis by catalase (Catalase): very inefficient
